Results taken from US12398106B2, “Catecholamine carbamate prodrugs for use in the treatment of parkinson's disease” (H. Lundbeck A/S, priority 2019, dated 2025).
Blank lines part the entries; values can stand above or below the compound they belong to.

How the values were obtained:
[1] = target: T1, human 5-HT2B receptor (Homo sapiens, UniProt P41595); test: 5-HT2B radioligand binding assay ([125I](±)DOI, CHO cell membranes); conditions: read-out: 5-HT2B % at single concentration (binding affinity, % inhibition of control specific binding per footnote)
T1 construct: host or cells: CHO cells
T1 sequence (P41595 whole entry): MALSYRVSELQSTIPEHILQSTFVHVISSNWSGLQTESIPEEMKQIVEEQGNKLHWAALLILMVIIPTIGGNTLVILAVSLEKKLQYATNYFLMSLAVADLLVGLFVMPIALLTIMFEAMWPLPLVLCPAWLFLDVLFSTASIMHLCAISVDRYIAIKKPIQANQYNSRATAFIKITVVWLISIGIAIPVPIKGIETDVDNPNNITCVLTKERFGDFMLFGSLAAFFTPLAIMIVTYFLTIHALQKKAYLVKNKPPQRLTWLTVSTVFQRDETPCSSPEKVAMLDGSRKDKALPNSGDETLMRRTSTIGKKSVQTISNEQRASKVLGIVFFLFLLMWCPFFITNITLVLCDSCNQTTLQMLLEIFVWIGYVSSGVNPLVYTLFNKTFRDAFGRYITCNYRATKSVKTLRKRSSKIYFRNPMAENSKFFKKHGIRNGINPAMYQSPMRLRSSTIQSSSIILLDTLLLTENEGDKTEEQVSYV
Description: Evaluation of the affinity of compounds for the human 5-HT2B receptor was determined in a radioligand binding assay at Eurofins/Cerep (France). Membrane homogenates prepared from CHO cells expressing the human 5HT2B receptor were incubated for 60 minutes at room temperature with 0.2 nM [125I](±)DOI (1-(4-iodo-2, 5-dimethoxyphenyl)propan-2-amine) in the absence or presence of the test compound in a buffer containing 50 mM Tris-HCl (pH 7.4), 5 mM MgCl2, 10 μM pargyline and 0.1% ascorbic acid. Nonspecific binding is determined in the presence of 1 μM (±)DOI. Following incubation, the samples were filtered rapidly under vacuum through glass fiber filters (GF/B, Packard) presoaked with 0.3% polyethyleneimine (PEI) and rinsed several times with ice-cold 50 mM Tris-HCl using a 96-sample cell harvester (Unifilter, Packard). The filters were dried and counted for radioactivity in a scintillation counter (Topcount, Packard) using a scintillation cocktail (Microscint 0, Packard). The results are expressed as a percent inhibition of the control radioligand specific binding. The standard reference compound was (±)DOI, which was tested in each experiment at several concentrations to obtain a competition curve from which its IC50 is calculated.

[2] = Conversion of compounds in human plasma (incubation, LC-MS/MS); assay type: in vitro ADME; conditions: for Observed metabolite, incubation in human plasma: 1 μM test compound, 37° C., 0 to 6 hours
Description: Frozen human plasma was thawed and then centrifuged at 3200×g for 5 minutes to remove debris. The pH value of the supernatant was then measured and adjusted to 7.4±0.1 by adding 1% phosphoric acid or 1 N sodium hydroxide. 2 μL of dosing solution (50 μM for test compounds and 100 μM for positive control (propantheline bromide)) was mixed with 98 μL of blank plasma to achieve 1 μM test compound and 2 μM positive control of final concentration. The mixture was incubated, and samples were withdrawn from the incubations at the pre-determined time points of 0, 0.5, 1, 2, 4 and 6 hours (in duplicate) at 37° C. in water bath. At each corresponding time point 10 μL inhibitor and 20 μL ascorbic acid and 2 μL formic acid (20%) are added, and then added 400 μL of “stop solution” (200 ng/mL tolbutamide plus 200 ng/mL labetalol in 50% ACN/MeOH) to precipitate protein. The substance was mixed thoroughly and thereafter Centrifugated at 4,000 rpm for 20 minutes. Then an aliquot of supernatant (50 μL) was transferred from each well to a sample plate and mixed with 100 μL ultrapure water. The plate was shaked at 800 rpm for about 10 minutes before submitting to LC-MS/MS analysis.
Mass spectrometer (LC-MS/MS) Shimadzu LC 20-AD Shimadzu UHPLC API 4000. Analytical column ACQUITY UPLC® BEH Phenyl 1.7 μm 2.1×50 mm. Mobile phase A: 0.1% Formic Acid in Water. Mobile phase B: 0.1% Formic Acid in Acetonitrile. […] Flow rate 0.7 mL/min.

[3] = PK experiments in rats: plasma compound (I) after oral dosing of prodrug; conditions: for Observed metabolite, in vivo PK study after oral dosing (rats): plasma; for Plasma concentrations / exposure of compound (I) after oral dosing of prodrug (in words): Wistar rats, doses equal to 287 μg/kg of compound (I)
Description: For all the experiments, blood samples of approximately 0.68 mL were drawn from the tail or sublingual vein and put into K3EDTA tubes that had been pre-cooled and prepared with stabilizing solution consisting of 80 μL ascorbic acid and 40 μL 100 mM D-saccharic acid 1,4 lactone in water. The tubes were inverted gently 6-8 times to ensure thorough mixing and then placed in wet ice. The collecting tube was placed in wet ice for up to 30 minutes until centrifugation. Once removed from the wet ice the centrifugation was initiated immediately. Immediately after end of centrifugation the samples were returned to wet ice. Three sub-samples of 130 μL plasma were transferred to each of three appropriately labelled cryo tubes containing 6.5 μL pre-cooled formic acid (20%) (the tubes were pre-spiked and stored refrigerated prior to use). The tube lid was immediately replaced, and the plasma solution was thoroughly mixed by inverting gently 6-8 times. The samples were stored frozen at nominally −70° C. within 60 minutes after sampling. Centrifugation conditions at 3000 G for 10 minutes at 4° C. Plasma was placed on water-ice following collection. Final storage at approximately −70° C.
Plasma samples were analyzed by solid phase extraction or direct protein precipitation followed by UPLC-MS/MS. MS detection using electrospray in the positive ion mode with monitoring of specific mass-to-charge transitions for compound (I) using internal standards for correcting the response. The concentration-time data was analyzed, using standard software using appropriate noncompartmental techniques to obtain estimates of the derived PK parameters.
Mass spectrometer (LC-MS/MS) Waters Acquity-Sciex API 5000. Analytical column Waters BEH UPLC Phenyl 100×2.1 mm column, 1.7 μm particle size. Mobile phase A: 20 mM ammonium formate (aq)+0.5% formic acid. Mobile phase B: Acetonitrile. Gradient run from 95/5% to 2/98 in 6.1 minutes. Flow rate 0.5 mL/min. MRM monitoring (multiple reaction monitoring) of test item and the added analytical standards
Han Wistar rats were supplied by Charles River Laboratories, Sulzfeld, Germany. An artificial, automatically controlled, light and dark cycle of 12 hours was maintained. The rats received a standard laboratory diet from Brogaarden (Altromin 1324 pellets). The rats had unrestricted access to the diet.
Mass spectrometer (LC-MS/MS) Waters Acquity-Sciex API 5000. Analytical column Waters BEH UPLC Phenyl 100×2.1 mm column, 1.7 μm particle size. Mobile phase A: 20 mM ammonium formate (aq)+0.5% formic acid. Mobile phase B: Acetonitrile. Gradient run from 95/5% to 2/98 in 6.1 minutes. Flow rate 0.5 mL/min. MRM monitoring of test item and the added analytical standards.
Han Wistar rats were supplied by Charles River Laboratories, UK. An artificial, automatically controlled, light and dark cycle of 12 hours was maintained. The rats received a standard laboratory diet (Teklad 2014C Diet.). The rats had unrestricted access to the diet.
Mass spectrometer (LC-MS/MS) Waters Acquity—Waters Xevo TQ-S. Analytical column Acquity BEH C18 100×2.1 mm, 1.7 μm. Mobile phase A: 20 mM NH4—Formate+0.2% formic acid. Mobile phase B: Acetonitrile+0.2% formic acid. Gradient run from 95/5% to 5/95% in 11.0 minutes. Flow rate 0.3 mL/min. MRM monitoring of test item and the added analytical standards.
Han Wistar rats were supplied by Envigo, UK.

[4] = target: T1, human 5-HT2B receptor; test: 5-HT2B agonist activity assay (IP1 production, HTRF, transfected CHO cells); assay type: cell-based
Description: Evaluation of the agonist activity of compounds (I), (Ia) and (Ib) at the human 5-HT2B receptor was performed by Eurofins/Cerep (France) measuring the compound effects on inositol monophosphate (IP1) production using the HTRF detection method. Briefly, the human 5-HT2B receptor was expressed in transfected CHO cells. The cells were suspended in a buffer containing 10 mM Hepes/NaOH (pH 7.4), 4.2 mM KCl, 146 mM NaCl, 1 mM CaCl2, 0.5 mM MgCl2, 5.5 mM glucose and 50 mM LiCl, then distributed in microplates at a density of 4100 cells/well and incubated for 30 min at 37° C. in the presence of buffer (basal control), test compound or reference agonist. For stimulated control measurement, separate assay wells contained 1 μM 5-HT. Following incubation, the cells were lysed and the fluorescence acceptor (fluorophen D2-labeled IP1) and fluorescence donor (anti-IP1 antibody labeled with europium cryptate) were added. After 60 minutes at room temperature, the fluorescence transfer was measured at lambda(Ex) 337 nm and lambda (Em) 620 and 665 nm using a microplate reader (Rubystar, BMG). The IP1 concentration was determined by dividing the signal measured at 665 nm by that measured at 620 nm (ratio). The results were expressed as a percent of the control response to 1 μM 5-HT. […]

[5] = man, after oral dosing; cited from earlier work

Compound: CCCN1CCC[C@@H]2Cc3c(ccc(OC(=O)N(C)C)c3OC(=O)N(C)C)C[C@H]21 [Compound (3), (4aR,10aR)-1-propyl-1,2,3,4,4a,5,10,10a-octahydrobenzo[g]quinoline-6,7-diyl bis(dimethylcarbamate)]
- inhibition at 10 µM [1]: 4%
- Observed metabolite, incubation in human plasma [2]: Compound (I)
- Observed metabolite, in vivo PK study after oral dosing (rats) [3]: Compound (I)

- Plasma concentrations / exposure of compound (I) after oral dosing of prodrug (in words) [3]: extremely low
Compound: CCCN1CCC[C@@H]2Cc3c(ccc(OC(=O)C(C)(C)C)c3OC(=O)C(C)(C)C)C[C@H]21 [(Ic), reference compound]

Compound: CCCN1CCC[C@@H]2Cc3c(ccc(OC(=O)NCC)c3OC(=O)NCC)C[C@H]21 [Compound (2), (4aR,10aR)-1-propyl-1,2,3,4,4a,5,10,10a-octahydrobenzo[g]quinoline-6,7-diyl bis(ethylcarbamate)]
- inhibition at 10 µM [1]: 3%
- Observed metabolite, incubation in human plasma [2]: Compound (I)
- Observed metabolite, in vivo PK study after oral dosing (rats) [3]: Compound (I)

Compound: CCCN1CCC[C@@H]2Cc3c(ccc(O)c3O)C[C@H]21 [Compound (I), (4aR,10aR)-1-Propyl-1,2,3,4,4a,5,10,10a-octahydro-benzo[g]quinoline-6,7-diol, reference compound]
- Half-life in the plasma assay (in words) ([2]; human plasma incubation): short half-life

Compound: CCCN1CCC[C@@H]2CC3=C(CCCC3=O)C[C@H]21 [Compound (Ia), reference compound]
- 5-HT2B agonist effect at single concentration ([4]; @30 μM, percent of the control response to 1 μM 5-HT): 58%
- Plasma concentrations / exposure of compound (I) after oral dosing of prodrug (in words) [3]: early and high peak concentrations of compound (I)

Compound: CCCN1CCC[C@@H]2Cc3c(ccc(OC(=O)NC)c3OC(=O)NC)C[C@H]21 [Compound (1), (4aR,10aR)-1-propyl-1,2,3,4,4a,5,10,10a-octahydrobenzo[g]quinoline-6,7-diyl bis(methylcarbamate)]
- inhibition at 10 µM [1]: 3%
- Observed metabolite, in vivo PK study after oral dosing (rats) [3]: Compound (I)

Compound: CCCN1CCC[C@@H]2Cc3c(ccc4c3OCO4)C[C@H]21 [Compound (Ib), (6aR,10aR)-7-propyl-6,6a,7,8,9,10,10a,11-octahydro-[1,3]dioxolo[4′,5′:5,6]benzo[1,2-g]quinoline, reference compound]
- 5-HT2B receptor agonism (in words) ([4]; c.f. example 2 and Table 3): agonist of the 5-HT2B receptor
- Plasma concentrations / exposure of compound (I) after oral dosing of prodrug (in words) [3]: early and high peak concentrations of compound (I)

Compound: CCCc1cc2c(s1)CN[C@@H]1CCc3cc(OC(C)=O)c(OC(C)=O)cc3[C@@H]21 [Adrogolide]
- Oral bioavailability [5]: ~4%
